Measurements from patent US11992475B1, “Application of Z-ligustilide in resisting rotaviruses” (GUANGDONG MEDICAL UNIVERSITY, priority 2023, dated 2024).

Experiments:
MA104 cells = assay: Toxicity of Z-ligustilide to MA104 cells (MTT assay); type: cell-based; settings: 48 h
Protocol: According to the common drug concentration range of Z-ligustilide, the cytotoxicity pre-experiment is performed in the range of 1-100 μM in this experiment. The MA104 cells at the logarithmic phase are observed under a microscope, the cellular morphology is uniform and full with clear edges, and when the number reaches 80%, digestion, centrifugation and re-suspension are conducted. After further dilution, 10 μl of the suspension is taken on a blood cell counting plate to count and calculate the required cell volume. Then, the cells are laid in a 96-well plate, 100 μl of cell suspension is added in each well, and the cell density is 8×10^4 cells/mL. When the cells adhere to the wall to form a single layer, the drug group is administered, and the normal group is added with an equal volume of DMEM (without serum). After incubation for 48 h, the cytotoxicity of Z-ligustilide is detected by MTT reagent. 1/10 volume of MTT solution is added in each well and incubated in an incubator. After 4 h, the solution in the wells is sucked out, 150 μL of DMSO is added in each well, and the absorbance is measured and recorded at a wavelength of 490 nm under the condition of oscillation for 30 s.
The formula of the relative survival rate of the cells is: {(Aexperimental group−Ablank)/(Acontrol group−Ablank)×100%}

RV (Wa strain RV) [1] = assay: Effect of Z-ligustilide in resisting RV synthesis (MTT, MA104 cells); type: cell-based, Rotavirus (RV); settings: for inhibition rate against RV (resisting biosynthesis): drug after virus, 48 h
Protocol: (§1) The formula of the viral inhibition rate is: {(Adrug group−Avirus group)/(Anormal group−Avirus group)×100%}
100TCID50 virus solution (the virus acts with 10 μg/mL pancreatin for 30 min) is added in a 96-well culture plate of MA104-2 cells that grow to a single layer, at an amount of 100 μL/well. The cells have been washed twice with PBS. A normal cell control group is set, and added with an equal volume of DMEM culture solution. Incubation is conducted in 5% CO2 at 37° C. for 2 h, the virus solution is sucked out, and drug solution and ribavirin of different concentrations are added respectively at an amount of 100 μL/well. A viral control group is set, and only added with the cell maintenance medium at an amount of 100 μL/well. Incubation is conducted in 5% CO2 at 37° C. for continuous observation. After continuous culture for 48 h, an MTT kit is used for detection. 1/10 volume of MTT solution is added in each well and incubated in an incubator. After 4 h, the supernatant is sucked out, DMSO is added, and the absorbance is measured and recorded at a wavelength of 490 nm. The experiment is repeated for 3 times. The viral inhibition rate of the drug is calculated.

RV (Wa strain RV) [2] = assay: Effect of Z-ligustilide in resisting RV adsorption (MTT, MA104 cells); type: cell-based, Rotavirus (RV); settings: for inhibition rate against RV (resisting adsorption): drug 2 h before virus, 48 h
Protocol: The drug solution is added in a 96-well culture plate of MA104 cells that grow to a single layer, and each drug solution is added in 6 wells at an amount of 100 μL/well. An equal volume of ribavirin is added to the positive control group, and only an equal volume of DMEM culture solution (without serum) is added to the normal cell control group and the viral control group. Incubation is conducted in 5% CO2 at 37° C. for 2 h. The drug solution is sucked out. Except the normal cell control group, 100TCID50 virus is added (the virus acts with 10 μg/mL pancreatin at 37° C. for 30 min) at an amount of 100 μL/well. Incubation is conducted in 5% CO2 at 37° C. for 2 h. The virus is sucked out, the cell maintenance medium is added at an amount of 200 μL/well. Incubation is conducted in 5% CO2 at 37° C. for continuous observation. After culture for 48 h, an MTT kit is used for detection. 1/10 volume of MTT solution is added in each well and incubated in an incubator. After 4 h, the supernatant is sucked out, DMSO is added, and the absorbance is measured and recorded at a wavelength of 490 nm. The experiment is repeated for 3 times.
as §1

[3] = test system: structural protein VP6 of RV; assay: Gene expression level of structural protein VP6 of RV in RV-infected MA104 cells (real time PCR); type: cell-based, Rotavirus (RV), Wa strain; settings: for VP6 expression level compared with the RV group: 48 h, GAPDH internal reference
Protocol: (1) To further verify whether Z-ligustilide has an effect of inhibiting RV synthesis, after Z-ligustilide inhibits RV synthesis for 48 h, drug groups of low, medium and high concentrations, the ribavirin group, the N group and the RV group are selected, the supernatant is removed, the solution is washed twice with PBS, 1 ml of Trizol reagent is added, and then the solution is collected into a 1.5 mL enzyme-free EP tube after standing for 5 min. 200 μL of chloroform is added in the tube. After vortex oscillation for 15 s, the solution is stood at room temperature for 3 min, and centrifuged (4° C., 12000 r/min, 15 min). The centrifuged sample is divided into three layers: a colorless upper layer, a white middle layer and a red lower layer.
(2) The supernatant is carefully sucked into a new 1.5 mL enzyme-free EP tube (with a volume of about 500 μL), and an equal volume of pre-cooled isopropanol is added. The solution is shaken up and down violently, mixed well, stood at 4° C. for 10 min, and centrifuged (4° C., 12000 r/min, 10 min).
(3) After centrifugation, white precipitate can be seen at the bottom of the EP tube. The supernatant is removed, and the precipitate is retained. 1 mL of the prepared 75% ethanol solution (prepared from anhydrous ethanol and enzyme-free water at a ratio of 3:1) is added, shaken and mixed well, and centrifuged (4° C., 12000 r/min, 5 min). The supernatant is discarded, and the solution is stood at room temperature for 15-20 min for drying.
(4) After drying, 20 μL of DEPC water is added in the EP tube, and the tube wall is gently blown to dissolve RNA. The RNA concentration of the sample is determined by a NanoDrop micro ultraviolet spectrophotometer, and then the sample can be used directly for the experiment or stored at −80° C. for later use.
A reaction mixture is prepared on ice according to the following components in a reaction volume of 20 μL in accordance with the instructions of Evo M-MLV RT Kit with gDNA Clean for qPCR II. The consumables used in the experiment are all Axygen enzyme-free consumables.
Reaction conditions: 42° C. 2 min, 4° C.
The reaction solution is prepared according to the following table, and the reverse transcription reaction is performed.
Reaction conditions: 37° C. 15 min, 85° C. 5 sec, 4° C.
Real time quantitative PCR is used to detect the control group and the RVWa strain-infected group by SYBR Green I fluorescent labeling. SYBR® Green Premix Pro Taq HS qPCR Kit II is used, and GAPDH is selected as the internal reference. In the experiment, dedicated real-time eight-row PCR tubes for Axygen are used for preparing a real-time fluorescence quantitative PCR amplification reaction system according to the following table, and the reaction solution is prepared on ice (the total reaction system is 10 μL).

RV (Wa strain RV) [4] = assay: Effect of Z-ligustilide in directly killing RV (MTT, MA104 cells); type: cell-based, Rotavirus (RV); settings: for inhibition rate against RV (directly killing): drug mixed with virus 2 h, 48 h
Protocol: The drug is mixed with 100TCID50 virus solution (the virus acts with 10 μg/mL pancreatin for 30 min) at an equal volume to act for 2 h. After the cells are washed twice with PBS, the cells are added in a 96-well culture plate of MA104 cells that grow to a single layer. The same operation as above is conducted for ribavirin and RV in the positive control group, and only an equal volume of DMEM is added to the normal cell control group and the viral control group. Incubation is conducted in 5% CO2 at 37° C. for 2 h, the mixed solution is sucked out, and the cell maintenance medium is added at an amount of 100 μL/well. Incubation is conducted in 5% CO2 at 37° C. for continuous observation. After continuous culture for 48 h, an MTT kit is used for detection. 1/10 volume of MTT solution is added in each well and incubated in an incubator. After 4 h, the supernatant is sucked out, DMSO is added, and the absorbance is measured and recorded at a wavelength of 490 nm. The experiment is repeated for 3 times. The viral inhibition rate of the drug is calculated. The formula of the viral inhibition rate is: {(Adrug group−Avirus group)/(Anormal group−Avirus group)×100%}

[5] = 1st of six values printed for 65-90 μM
[6] = 2nd of six values printed for 65-90 μM
[7] = 3rd of six values printed for 65-90 μM
[8] = 4th of six values printed for 65-90 μM
[9] = 5th of six values printed for 65-90 μM
[10] = 6th of six values printed for 65-90 μM

CCC/C=C1\OC(=O)C2=C1CCC=C2 [Z-ligustilide]
drug toxicity to the cells (MA104 cells; 60-95 μM): no drug toxicity
cell viability versus the normal group (MA104 cells; 65-90 μM): no significant difference
average survival rate (MA104 cells; drug concentration 60-95 μM): more than 95%
effect of inhibiting RV biosynthesis (RV (Wa strain RV) [1]): has an effect of inhibiting RV biosynthesis
inhibition rate against RV (resisting biosynthesis) (RV (Wa strain RV) [1]; 80 µM, without statistical difference from the ribavirin group): 64.21%
inhibition of rotavirus biosynthesis (RV (Wa strain RV) [1]; 70-85 μM): can effectively inhibit rotavirus biosynthesis
inhibition rate against RV (resisting biosynthesis) (RV (Wa strain RV) [1]; 70-85 μM): more than 50%
inhibition rate against RV (resisting adsorption) (RV (Wa strain RV) [2]; [5]): 4.85%
inhibition rate against RV (resisting adsorption) (RV (Wa strain RV) [2]; [6]): 4.55%
inhibition rate against RV (resisting adsorption) (RV (Wa strain RV) [2]; [7]): 1.14%
inhibition rate against RV (resisting adsorption) (RV (Wa strain RV) [2]; [8]): 3.95%
inhibition rate against RV (resisting adsorption) (RV (Wa strain RV) [2]; [9]): 3.01%
inhibition rate against RV (resisting adsorption) (RV (Wa strain RV) [2]; [10]): 4.69%
effect of resisting RV adsorption (RV (Wa strain RV) [2]; 65-90 μM): no obvious effect
maximum inhibition rate (resisting adsorption) (RV (Wa strain RV) [2]; within 65-90 μM): about 4.85%
VP6 expression level compared with the RV group ([3]; 75 μM): significantly decreased
VP6 expression level compared with the RV group ([3]; 80 μM): significantly decreased
VP6 expression level compared with the RV group ([3]; 85 μM): significantly decreased
concentration at which VP6 expression is inhibited most significantly ([3]; among 75 μM, 80 μM and 85 μM): 75 µM
inhibition rate against RV (directly killing) (RV (Wa strain RV) [4]; [5]): 2.32%
inhibition rate against RV (directly killing) (RV (Wa strain RV) [4]; [6]): 3.25%
inhibition rate against RV (directly killing) (RV (Wa strain RV) [4]; [7]): 0.93%
inhibition rate against RV (directly killing) (RV (Wa strain RV) [4]; [8]): 0.4%
inhibition rate against RV (directly killing) (RV (Wa strain RV) [4]; [9]): 6.45%
inhibition rate against RV (directly killing) (RV (Wa strain RV) [4]; [10]): 5.89%
effect of directly killing RV (RV (Wa strain RV) [4]; 65-90 μM): no obvious effect
